In publication PMC6199744, “Development of Chemical Proteomics for the Folateome and Analysis of the Kinetoplastid Folateome” (ACS Infectious Diseases, 2018):
Read-outs that look alike come from different tables or passages of the source.

What was measured:
Type in all cases: binding
[1] = biological target: T1, HeLa cell extract proteins (Homo sapiens, UniProt Q9BW92)
T1 construct: endogenous in cells; host or cells: HeLa cell extract
T1 sequence (Q9BW92 1-718): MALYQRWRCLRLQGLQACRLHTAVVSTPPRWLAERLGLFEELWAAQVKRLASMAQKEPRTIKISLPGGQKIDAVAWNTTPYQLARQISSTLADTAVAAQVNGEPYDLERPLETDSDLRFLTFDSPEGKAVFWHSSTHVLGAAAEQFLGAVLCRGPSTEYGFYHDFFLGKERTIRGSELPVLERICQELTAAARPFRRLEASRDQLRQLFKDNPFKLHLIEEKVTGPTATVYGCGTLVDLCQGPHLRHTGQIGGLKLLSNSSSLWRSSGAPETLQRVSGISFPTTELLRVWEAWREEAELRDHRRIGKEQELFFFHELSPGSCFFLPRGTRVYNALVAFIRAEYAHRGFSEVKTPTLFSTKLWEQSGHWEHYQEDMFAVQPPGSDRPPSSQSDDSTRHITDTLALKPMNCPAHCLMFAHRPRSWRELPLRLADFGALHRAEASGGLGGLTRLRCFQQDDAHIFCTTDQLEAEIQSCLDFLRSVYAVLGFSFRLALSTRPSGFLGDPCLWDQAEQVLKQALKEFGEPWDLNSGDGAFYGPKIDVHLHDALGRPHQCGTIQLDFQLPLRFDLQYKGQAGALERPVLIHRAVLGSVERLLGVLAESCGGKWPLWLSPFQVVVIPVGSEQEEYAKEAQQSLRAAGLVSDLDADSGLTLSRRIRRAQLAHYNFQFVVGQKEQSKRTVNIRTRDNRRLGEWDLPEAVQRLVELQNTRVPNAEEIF

[2] = biological target: T2, HeLa cell extract proteins (Homo sapiens, UniProt P60510)
T2 construct: endogenous in cells; host or cells: HeLa cell extract
T2 sequence (P60510 1-307): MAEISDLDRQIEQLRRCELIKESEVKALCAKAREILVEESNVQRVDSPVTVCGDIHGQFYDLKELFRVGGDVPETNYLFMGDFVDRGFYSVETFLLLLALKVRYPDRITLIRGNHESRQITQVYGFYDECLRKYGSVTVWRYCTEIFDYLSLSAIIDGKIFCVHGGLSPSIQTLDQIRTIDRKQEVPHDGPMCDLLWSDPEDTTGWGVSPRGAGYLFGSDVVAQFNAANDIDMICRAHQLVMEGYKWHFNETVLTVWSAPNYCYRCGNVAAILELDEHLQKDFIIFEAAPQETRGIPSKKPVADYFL

[3] = biological target: T3, HeLa cell extract proteins (Homo sapiens, UniProt P14866); details: protein HNRNPL; HeLa
T3 construct: endogenous in cells; host or cells: HeLa cell extract
T3 sequence (P14866 1-589): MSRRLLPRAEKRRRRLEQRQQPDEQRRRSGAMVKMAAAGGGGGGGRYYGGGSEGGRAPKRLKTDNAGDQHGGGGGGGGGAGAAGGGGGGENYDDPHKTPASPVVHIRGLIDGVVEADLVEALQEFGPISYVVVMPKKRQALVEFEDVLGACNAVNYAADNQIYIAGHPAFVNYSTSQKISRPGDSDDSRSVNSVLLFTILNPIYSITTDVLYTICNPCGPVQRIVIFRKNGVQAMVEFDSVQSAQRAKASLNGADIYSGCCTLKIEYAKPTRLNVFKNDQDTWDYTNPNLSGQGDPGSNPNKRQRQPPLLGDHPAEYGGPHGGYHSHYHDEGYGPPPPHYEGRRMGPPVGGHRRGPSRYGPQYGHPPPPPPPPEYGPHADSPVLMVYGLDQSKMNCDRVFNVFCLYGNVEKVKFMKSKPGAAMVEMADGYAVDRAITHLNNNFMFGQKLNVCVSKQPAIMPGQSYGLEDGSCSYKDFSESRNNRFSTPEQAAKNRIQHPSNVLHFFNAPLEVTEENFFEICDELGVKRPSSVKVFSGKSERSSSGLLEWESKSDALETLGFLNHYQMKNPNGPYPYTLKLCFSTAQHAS

[4] = biological target: T4, HeLa cell extract proteins (Homo sapiens, UniProt Q14746); details: captured protein COG2; HeLa
T4 construct: endogenous in cells; host or cells: HeLa cell extract
T4 sequence (Q14746 1-738): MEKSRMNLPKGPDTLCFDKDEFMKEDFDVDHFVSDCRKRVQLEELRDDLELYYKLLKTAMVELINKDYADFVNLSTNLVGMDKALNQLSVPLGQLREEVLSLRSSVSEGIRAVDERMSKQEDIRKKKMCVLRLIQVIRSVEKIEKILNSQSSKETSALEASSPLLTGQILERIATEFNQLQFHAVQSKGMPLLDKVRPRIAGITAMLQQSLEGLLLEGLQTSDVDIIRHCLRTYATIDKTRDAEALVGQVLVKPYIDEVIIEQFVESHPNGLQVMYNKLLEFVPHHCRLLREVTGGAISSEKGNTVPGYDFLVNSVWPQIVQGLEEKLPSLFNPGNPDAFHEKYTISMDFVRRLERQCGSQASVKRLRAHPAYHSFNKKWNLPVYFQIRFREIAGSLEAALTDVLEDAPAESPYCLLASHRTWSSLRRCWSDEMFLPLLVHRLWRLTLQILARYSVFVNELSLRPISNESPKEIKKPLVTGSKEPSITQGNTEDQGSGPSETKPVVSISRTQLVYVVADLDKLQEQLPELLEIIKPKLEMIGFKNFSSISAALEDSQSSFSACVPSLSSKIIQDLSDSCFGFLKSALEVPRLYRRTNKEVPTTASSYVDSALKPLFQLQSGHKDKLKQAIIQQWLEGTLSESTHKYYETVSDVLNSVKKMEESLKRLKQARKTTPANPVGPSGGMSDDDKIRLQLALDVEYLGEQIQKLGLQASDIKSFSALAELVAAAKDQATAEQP

[5] = biological target: T5, HeLa cell extract proteins (Homo sapiens, UniProt Q9UBB4); details: protein Ataxin-10; HeLa
T5 construct: endogenous in cells; host or cells: HeLa cell extract
T5 sequence (Q9UBB4 1-475): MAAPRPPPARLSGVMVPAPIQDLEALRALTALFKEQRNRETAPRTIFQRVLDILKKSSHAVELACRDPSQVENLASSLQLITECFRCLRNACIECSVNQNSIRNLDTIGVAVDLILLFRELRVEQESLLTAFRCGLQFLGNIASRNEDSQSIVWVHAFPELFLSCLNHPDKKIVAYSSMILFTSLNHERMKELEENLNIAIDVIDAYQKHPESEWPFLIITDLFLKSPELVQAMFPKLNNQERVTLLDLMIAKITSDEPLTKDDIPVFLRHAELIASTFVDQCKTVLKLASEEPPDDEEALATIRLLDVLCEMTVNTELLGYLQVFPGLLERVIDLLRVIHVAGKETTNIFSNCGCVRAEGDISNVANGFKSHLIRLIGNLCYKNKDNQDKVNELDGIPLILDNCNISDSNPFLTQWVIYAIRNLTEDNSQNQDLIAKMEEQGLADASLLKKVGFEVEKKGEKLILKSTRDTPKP

[6] = biological target: T6, HeLa cell extract proteins (Homo sapiens, UniProt P09669); details: captured protein COX6C; HeLa
T6 construct: endogenous in cells; host or cells: HeLa cell extract
T6 sequence (P09669 whole entry): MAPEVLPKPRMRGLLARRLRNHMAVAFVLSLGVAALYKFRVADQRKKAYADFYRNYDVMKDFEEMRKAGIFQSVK

Row | Structure (SMILES) | fold changes relative to vehicle control ([1]; HeLa, protein TARS2) | fold changes relative to vehicle control ([2]; protein PPP4C, HeLa) | fold changes relative to vehicle control [3] | fold changes relative to vehicle control [4] | fold changes relative to vehicle control [5] | fold changes relative to vehicle control [6] | fold changes relative to vehicle control [1] | fold changes relative to vehicle control [2]
1 | Nc1nc2c(c(=O)[nH]1)N(C=O)C(CNc1ccc(C(=O)N[C@@H](CCC(=O)O)C(=O)O)cc1)CN2 (some centres unmarked) [LEU, leucovorin] | 0.91 | 0.82 |  |  |  |  |  | 
2 | NCCCNc1ccc(C(=O)NC(CCC(=O)O)C(=O)O)cc1 (centres unmarked) [compound 7] | 1 | 1 |  |  |  |  |  | 
3 | CCCCCCOc1cccc(Cc2cnc(N)nc2N)c1 [compound 2] |  |  | 1.02 | 1 | 1.4 | 0.94 |  | 
4 | CCCCCCOc1ccc(Cc2cnc(N)nc2N)cc1 [compound 1] |  |  | 1 | 0.88 | 1.14 | 0.88 |  | 
5 | Nc1nc2cccc(-c3ccccc3)c2n1Cc1ccc(Cl)c(Cl)c1 [compound 3] |  |  | 0.88 | 0.82 | 1.04 | 1.07 |  | 
6 | NCCOCCOCC(=O)Nc1nc2ncc(CNc3ccc(C(=O)NC(CCC(=O)O)C(=O)O)cc3)nc2c(=O)[nH]1 (centres unmarked) [compound 6] | 1.13 | 0.95 |  |  |  |  |  | 
7 | Nc1nc2[nH]cc(CCc3ccc(C(=O)N[C@@H](CCC(=O)O)C(=O)O)cc3)c2c(=O)[nH]1 [PTX, pemetrexed] |  |  |  |  |  |  | 0.87 | 0.95
